Results as given in US7365221B2, “Monoacylated betulin and dihydrobetulin derivatives, preparation thereof and use thereof” (priority 2002, dated 2008).
Where two headings read alike, the source gives them in different places.

Columns and labels:
[1] = tested on: HIV-1 replication in H9 lymphocyte cells; details: Fujioka et al. 1994, cited from earlier work
[2] = tested on: uninfected cells; experiment: Cytotoxicity on compound-exposed uninfected cells
Protocol: (§1) The biological evaluation of HIV-1 inhibition was carried out as follows according to established protocols (Montefiori et al., Clin Microbiol. 26:231-235 (1988)). The human T-cell line, MT-2, was maintained in continuous culture with complete medium (RPMI 1640 with 10% fetal calf serum supplemented with L-glutamine at 5% CO2 and 37° C.). Test samples were first dissolved in dimethyl sulfoxide at a concentration of 10 mg/ml to generate master stocks with dilutions made into tissue culture media to generate working stocks. The following drug concentrations were routinely used for screening: 100, 20, 4 and 0.8 μg/ml. For agents found to be active, additional dilutions were prepared for subsequent testing so that an accurate EC50 value (defined below) could be determined. Test samples were prepared and to each sample well was added 90 μl of media containing MT-2 cells at 3×10^5 cells/ml and 45 μl of virus inoculum (HIV-1 IIIIB isolate) at a concentration necessary to result in 80% killing of the cell targets at 5 days post-infection (PI). Control wells containing virus and cells only (no drug) and cells only (no virus or drug) were also prepared. A second set of samples were prepared identical to the first and were added to cells under identical conditions without virus (mock infection) for toxicity determinations (IC50 defined below). In addition, AZT was also assayed during each experiment as a positive drug control. On day 5 PI, virus-induced cell killing was determined by measuring cell viability using the XTT method. Compound toxicity was determined by XTT using the mock-infected samples. If a test sample had suppressive capability and was not toxic, its effects were reported in the following terms: IC50, the concentration of test sample which was toxic to 50% of the mock-infected MT-2 cells; EC50, the concentration of the test sample that was able to suppress HIV replication by 50%; and the Therapeutic index (TI) the ratio of the IC50 to EC50.
(§2) Compounds of the present invention were assayed for anti-HIV activity according to the following assay procedures. The T cell line, H9, and the promonocytic cell line, U937, were maintained separately in continuous culture with complete medium (RPMI 1640 with 10% fetal calf serum) at 5% CO2 and 37° C. The cell lines were used in experiments only when in the logarithmic phase of growth, whereas uninfected peripheral blood mononuclear cells (PBMCs) were first stimulated with PHA (1 μg/mL) for three days. All cell targets were incubated with HIV-1 (IIIB isolate, 1×10^6 TCID50/mL) for one hour at 37° C. and 5% CO2. The cell lines and PBMCs were washed thoroughly to remove unadsorbed virions and resuspended at 4×10^5 cells/mL in complete medium or complete medium with 10% v/v interleukin 2 (IL-2), respectively. 100 μL aliquots were placed into wells of 96-well tissue culture plates containing an equal volume of test compounds (diluted in the appropriate culture medium). The toxicity of each compound was assessed by determining the number of compound-exposed uninfected cells that remained after five days at 37° C. and 5% CO2. A p24 antigen ELISA assay was used to determine the level of virus released in the medium of the HIV-infected cultures. […] The cutoff for the p24 ELISA assay was 12.5 pg/mL. p24 in the culture medium was quantitated against a standard curve containing known amounts of p24. The effective (EC50) and inhibitory (IC50) concentrations for anti-HIV activity and cytotoxicity, respectively, were determined.

[3] = tested on: HIV-1 (IIIB isolate); type: cell-based; details: average of at least two experiments; cell line not stated; read-out: Anti-HIV Activity EC50
Protocol: as §1, §2

[4] = H9 lymphocyte cells, read-out: EC50, inhibitory activity against HIV-1 replication
[5] = read-out: Cytotoxicity IC50, average of at least two experiments, uninfected cells

Row | Compound | IC50 [2] [nM] | EC50 [3] [nM] | also measured
1 | C=C(C)[C@@H]1CC[C@]2(C(=O)O)CC[C@]3(C)[C@H](CC[C@@H]4[C@@]5(C)CC[C@H](O)C(C)(C)[C@@H]5CC[C@]43C)[C@@H]12 [Betulinic acid, betulinic acid] | – | – | EC50 [1, 4]: 1400 nM
2 | C=C(C)[C@@H]1CC[C@]2(CO)CC[C@]3(C)[C@H](CC[C@@H]4[C@@]5(C)CC[C@H](OC(=O)CC(C)(C)C(=O)O)C(C)(C)[C@@H]5CC[C@]43C)[C@@H]12 [Compound 6] | 33500 | 5.6 | –
3 | C=C(C)[C@@H]1CC[C@]2(CO)CC[C@]3(C)[C@H](CC[C@@H]4[C@@]5(C)CC[C@H](OC(=O)CC(C)(C)CC(=O)O)C(C)(C)[C@@H]5CC[C@]43C)[C@@H]12 [Compound 8] | 28900 | 4.4 | –
4 | C=C(C)[C@@H]1CC[C@]2(CO)CC[C@]3(C)[C@H](CC[C@@H]4[C@@]5(C)CC[C@H](OC(=O)CCCC(=O)O)C(C)(C)[C@@H]5CC[C@]43C)[C@@H]12 [Compound 10, 3-O-glutaryl betulin] | – | 66.2 | IC50 [2, 5]: 44400 nM
5 | C=C(C)[C@@H]1CC[C@]2(CO)CC[C@]3(C)[C@H](CC[C@@H]4[C@@]5(C)CC[C@H](OC(=O)COCC(=O)O)C(C)(C)[C@@H]5CC[C@]43C)[C@@H]12 [Compound 12] | > 44800 | 24.6 | –
6 | C=C(C)[C@@H]1CC[C@]2(CO)CC[C@]3(C)[C@H](CC[C@@H]4[C@@]5(C)CC[C@H](OC(=O)CCCC(=O)OCC)C(C)(C)[C@@H]5CC[C@]43C)[C@@H]12 [Compound 18, 3-O-glutaryl betulin ethyl ester] | – | 16.9 | IC50 [2, 5]: 36400 nM
7 | CC(C)[C@@H]1CC[C@]2(C(=O)O)CC[C@]3(C)C(CCC4[C@@]5(C)CC[C@H](O)C(C)(C)C5CC[C@]43C)C12 (stereo partly shown) [dihydrobetulinic acid] | – | – | EC50 ([1]; unit inferred, read-out: EC50, anti-HIV activity): 900 nM
8 | CC(=O)[C@@H]1CC[C@]2(C(=O)O)CC[C@]3(C)[C@H](CC[C@@H]4[C@@]5(C)CC[C@H](O)C(C)(C)[C@@H]5CC[C@]43C)[C@@H]12 [platanic acid] | – | – | EC50 [1, 4]: 6500 nM
